Laboratory results reported in patent US11643428B2, “Therapeutic drug for neurodegenerative disease and application thereof” (SHANGHAI PHARMACEUTICALS HOLDING CO., LTD., priority 2018, dated 2023).

Key:
[1] = test system: APP/PS1 transgenic mice (AD mice); assay: Morris water maze test; type: in vivo, mouse; settings: 10 mg/kg intragastrically daily, 90 days, vs model group
Experimental: Twenty 5-6 months aged, male APP/PS1 transgenic mice (AD mice) were selected, and were divided into a model group and a polysaccharide administration group randomly by random number table method. PL201 was intragastrically administered daily (10 mg/kg mouse body weight), meanwhile, 10 non-transgenic mice were used as a negative control group (without PL201 administration). After 90 days of consecutive administration, Morris water maze behavior test was used to detect the effects of PL201 on learning and cognitive function of APP/PS1 mice.
Classic Morris water maze test procedure was used in the test, which includes two parts: i.e., the place navigation task and the spatial probe task. The test lasted for 7 days, and the spatial probe task was added at Day 4 and Day 7.
It can be seen from the test results in FIG. 1 that the escape latency of all the three groups of animals after 3 days of training was shortened in the place navigation task, illustrating that mice in each group can successfully complete the spatial learning task of the water maze. The escape latency was used as a test indicator.

mouse BV-2 cell line = assay: Expression of inflammatory factors in LPS-treated BV-2 cells by QPCR; type: cell-based; settings: PL201 10, 30, 100 μM, LPS 300 ng/ml, 24 hours
Experimental: Neuroinflammation in the brain of AD is one of the causes of cognitive decline. Microglial cells are the key cells that mediate neuroinflammation. In this example, the inventors have explored whether PL201 has the effect of inhibiting neuroinflammation by detecting the expressions of inflammatory factors on mouse BV-2 cell line.
BV-2 cells were cultured in DMEM, plated to 24 well plates and cultured for 24 hours, then PL201 (0, 10, 30, and 100 μM) and LPS (300 ng/ml) were added. After co-incubation for 24 hours, Trizol was used to extract RNA and the expressions of related inflammatory factors were detected by QPCR.
Mouse BV-2 cells were cultured in DMEM, plated to 24 well plates and cultured for 24 hours, then PL202 (0, 30, 100, and 300 μM) and LPS (300 ng/ml) were added. After co-incubation for 24 hours, Trizol was used to extract RNA and the expressions of related inflammatory factors were detected by QPCR.

[2] = test system: neuroblastoma cells SK-N-SH; assay: Total Aβ in supernatant of SK-N-SH cells by ELISA; type: cell-based; settings: 30, 100, 300 μM, 24 hours
Experimental: Culture of neuroblastoma cells SK-N-SH and Aβ detection: SK-N-SH cells were cultured in DMEM, plated to 24 well plates and cultured for 24 hours, then PL201 (0, 30, 100, and 300 μM) was added. After co-incubation for 24 hours, the protein level of total Aβ in supernatant was detected by ELISA.
Culture of neuroblastoma cells SK-N-SH and Aβ detection: SK-N-SH cells were cultured in DMEM, plated to 24 well plates and cultured for 24 hours, then PL202 (0, 30, and 100 μM) was added. After co-incubation for 24 hours, protein level of total Aβ in supernatant was detected by ELISA.
Culture of neuroblastoma cells SK-N-SH and Aβ detection: SK-N-SH cells were cultured in DMEM, plated to 24 well plates and cultured for 24 hours, then PL171 (300 μM) was added. After co-incubation for 24 hours, protein level of total Aβ in supernatant was detected by ELISA.
Culture of neuroblastoma cells SK-N-SH and Aβ detection: SK-N-SH cells were cultured in DMEM, plated to 24 well plates and cultured for 24 hours, then PL172 (300 μM) was added. After co-incubation for 24 hours, protein level of total Aβ in supernatant was detected by ELISA.

Human neural stem cells = assay: Mitochondrial membrane potential, JC-1 staining; type: cell-based; settings: Aβ-treated cells
Experimental: Mitochondrial membrane potential is the main parameter of mitochondrial function, and mitochondrial dysfunction is a prominent feature of AD brain. In this example, the inventors have explored whether PL201 has the effect of improving mitochondrial function by detecting the level of cell mitochondrial membrane potential of human neural stem cells.
Mitochondria was stained with JC-1 for 20 minutes and washed with washing buffer, then immunofluorescence analysis was performed.

AD mice = assay: Neurogenesis in vivo, BrdU/NeuN staining of hippocampus; design: species or system mouse; settings: 10 mg/kg intragastrically once daily, 90 days, vs control group
Experimental: The inventors conducted PL201 administration experiments on AD mice (5-6 months aged AD mice were selected). Each mouse was intragastrically administrated 100 μl PL201, and the dosage was 10 mg/kg mouse body weight. Moreover, mice in the control group were administrated 100 μl water once daily for 90 days, and from Day 60 were intraperitoneally injected with 5-bromo-2′-deoxyuridine (BrdU) of 50 mg/kg mouse body weight once daily for 7 days. After 90 days of administration, the mice were perfused with PFA after anesthesia, and the whole brain was taken for further experiments.
For the obtained whole brain, a mature neuron marker NeuN in the hippocampus of mice was detected: The brain of mouse which had been perfused with PFA was then fixed in 4% PFA for 24 hours, and then kept for 72 hours in 30% sucrose for cryoprotection. After the treatment was completed, the region of cerebellum was removed, and the olfactory bulb was placed upright on the filter paper and frozen at −80° C. for at least 24 hours. The frozen sectioning was performed vertically and longitudinally with a thickness of 30 μm. A total of 8×9×=72 slices (2.16 mm) including DG portion were cut and arranged in slicing order. One slice was taken from every 8 slices and combined into a group of brain slices for staining. […] The number of single or double positive cells was analyzed by Image Pro Plus software. […]

Compound: COc1cc(/C=C/C(=O)OC2OC(C)C(O)C(O)C2O)ccc1O [PL201, (α-L-rhamnopyranosyl) ferulic acid ester]
- learning and memory abilities (escape latency) [1]: significantly improved
- expression of inflammatory factor IL-1β (mouse BV-2 cell line): significantly inhibit
- expression of inflammatory factor TNFα (mouse BV-2 cell line): significantly inhibit
- Aβ production (total Aβ in supernatant) [2]: significantly inhibited
- mitochondrial membrane potential (Human neural stem cells): mitigated the deleterious effect of Aβ to a lesser extent
- BrdU/NeuN double-positive newborn neurons in hippocampus (AD mice): more BrdU/NeuN double-positive newborn neurons
